Source: patent US9512107B2, “Therapeutically active compositions and their methods of use” (Agios Pharmaceuticals, Inc., priority 2012, dated 2016)
Read-outs that look alike come from different tables or passages of the source.

Columns and labels:
[1] = molecular target: T1, IDH2 R140Q (Homo sapiens, UniProt P48735, R140Q); experiment: IDH2 R140Q enzymatic assay (cofactor depletion, similar format); assay type: biochemical; conditions: for IC50: read-out: Enz R140Q
T1 sequence (P48735 40-452 R140Q): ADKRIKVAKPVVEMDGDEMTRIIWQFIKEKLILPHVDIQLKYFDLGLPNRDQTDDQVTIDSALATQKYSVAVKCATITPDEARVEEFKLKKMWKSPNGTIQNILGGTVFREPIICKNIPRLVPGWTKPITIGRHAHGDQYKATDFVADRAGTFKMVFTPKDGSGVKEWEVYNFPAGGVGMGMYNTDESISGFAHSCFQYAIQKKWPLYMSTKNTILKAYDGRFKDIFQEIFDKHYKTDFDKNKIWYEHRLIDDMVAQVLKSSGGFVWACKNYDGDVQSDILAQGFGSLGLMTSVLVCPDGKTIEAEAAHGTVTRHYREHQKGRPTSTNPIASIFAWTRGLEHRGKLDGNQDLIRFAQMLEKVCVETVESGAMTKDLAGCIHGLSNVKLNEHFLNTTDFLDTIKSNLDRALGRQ

[2] = tested on: U87MG pLVX-IDH2 R140Q-neo cells; experiment: U87MG pLVX-IDH2 R140Q-neo cell based assay, 2-HG in media by LC-MS at 48 hours
How it was run: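 U87MG cells stably expressing IDH2 R140Q were seeded overnight, then exposed to compound at 0.2% final DMSO at 37 °C, 5% CO2. 2-HG in the medium was quantified by LC-MS at 48 h. Growth inhibition was read by CellTiter-Glo luminescence at 72 h.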

Row | SMILES | Enz R140Q [1] | IC50 [1] [nM] | IC50 ([2]; Homo sapiens, U-87 MG) [nM] | IC50 [2] [nM] | Cell R140Q [2]
1 | CC(C)Nc1nc(Nc2cccc(S(C)(=O)=O)c2)nc(-c2cc(F)cc(C(F)(F)F)c2)n1 [Compound 660, 6-(3-fluoro-5-(trifluoromethyl)phenyl)-N2-isopropyl-N4-(3-(methylsulfonyl)phenyl)-1,3,5-triazine-2,4-diamine] | – | 100 to 1000 | 1000 to 10000 | – | –
2 | COc1cccc(-c2nc(Nc3cccc(S(C)(=O)=O)c3)nc(NC(C)C)n2)n1 [Compound 361, N^2-isopropyl-6-(6-methoxypyridin-2-yl)-N^4-(3-(methylsulfonyl)phenyl)-1,3,5-triazine-2,4-diamine] | – | 100 to 1000 | 100 to 1000 | – | –
3 | CNc1cccc(-c2nc(Nc3cccc(S(C)(=O)=O)c3)nc(NC(C)C)n2)n1 [Compound 364, N^2-isopropyl-6-(6-(methylamino)pyridin-2-yl)-N^4-(3-(methylsulfonyl)phenyl)-1,3,5-triazine-2,4-diamine] | – | 1000 to 10000 | 100 to 1000 | – | –
4 | CC(C)Nc1nc(Nc2cccc(S(C)(=O)=O)c2)nc(-c2cccc(C3CC3)n2)n1 [Compound 397, 6-(6-cyclopropylpyridin-2-yl)-N^2-isopropyl-N^4-(3-(methylsulfonyl)phenyl)-1,3,5-triazine-2,4-diamine] | – | 100 to 1000 | 100 to 1000 | – | –
5 | Fc1cc(Nc2nc(NC3COC3)nc(-c3cccc(Cl)n3)n2)ccn1 [Compound 393, 6-(6-chloropyridin-2-yl)-N^2-(2-fluoropyridin-4-yl)-N^4-(oxetan-3-yl)-1,3,5-triazine-2,4-diamine] | – | 100 to 1000 | < 100 | – | –
6 | FC(F)(F)c1cc(Nc2nc(NC3COC3)nc(-c3cccc(C(F)(F)F)n3)n2)ccn1 [Compound 378, N^2-(oxetan-3-yl)-6-(6-(trifluoromethyl)pyridin-2-yl)-N^4-(2-(trifluoromethyl)pyridin-4-yl)-1,3,5-triazine-2,4-diamine] | – | 100 to 1000 | < 100 | – | –
7 | CCC(CO)Nc1nc(Nc2ccncc2)nc(-c2ccccc2)n1 (stereo not drawn) [Compound 291, 2-(4-phenyl-6-(pyridin-4-ylamino)-1,3,5-triazin-2-ylamino)butan-1-ol] | No Fit | – | – | – | No Fit
8 | O=C(Nc1nc(Nc2ccccc2)nc(-c2ccccc2)n1)c1ccc[nH]1 [Compound 414, 1H-Pyrrole-2-carboxylic acid (4-phenyl-6-phenylamino-[1,3,5]triazin-2-yl)-amide] | – | 100 to 1000 | 100 to 1000 | – | –
9 | FC(F)(F)c1cc(Nc2nc(NC3COC3)nc(-c3cccc(Cl)n3)n2)ccn1 [Compound 356, 6-(6-Chloro-pyridin-2-yl)-N-oxetan-3-yl-N′-(2-trifluoromethyl-pyridin-4-yl)-[1,3,5]triazine-2,4-diamine] | – | 100 to 1000 | < 100 | – | –
10 | CC(C)(O)CNc1nc(Nc2ccnc(C(F)(F)F)c2)nc(-c2cccc(Cl)n2)n1 [Compound 391, 1-(4-(6-chloropyridin-2-yl)-6-(2-(trifluoromethyl)pyridin-4-ylamino)-1,3,5-triazin-2-ylamino)-2-methylpropan-2-ol] | – | 100 to 1000 | < 100 | – | –
11 | CC(O)C(=O)Nc1nc(Nc2ccccc2)nc(-c2ccccc2)n1 (stereo not drawn) [Compound 324, 2-hydroxy-N-(4-phenyl-6-(phenylamino)-1,3,5-triazin-2-yl)propanamide] | – | 100 to 1000 | 1000 to 10000 | – | –
12 | COC1CC(Nc2nc(Nc3ccncc3)nc(-c3ccccc3)n2)C1 (stereo not drawn) [Compound 305, N^2-(3-methoxycyclobutyl)-6-phenyl-N^4-(pyridin-4-yl)-1,3,5-triazine-2,4-diamine] | – | > 10000 | – | – | No Fit
13 | Fc1ccc(Nc2nc(NC3COC3)nc(-c3cccc(Cl)n3)n2)cn1 [Compound 410, 6-(6-chloropyridin-2-yl)-N^2-(6-fluoropyridin-3-yl)-N^4-(oxetan-3-yl)-1,3,5-triazine-2,4-diamine] | – | > 10000 | 100 to 1000 | – | –
14 | O[C@H]1CCC[C@H]1Nc1nc(Nc2ccccc2)nc(-c2ccccc2)n1 [Compound 352, (1S,2R)-2-(4-phenyl-6-(phenylamino)-1,3,5-triazin-2-ylamino)cyclopentanol] | – | < 100 | < 100 | – | –

More lines, main results first:

Row | Enz R140Q [1] | IC50 [1] [nM] | IC50 ([2]; Homo sapiens, U-87 MG) [nM] | IC50 [2] [nM] | SMILES | Cell R140Q [2]
15 | No Fit | – | – | – | OCCNc1nc(Nc2ccncc2)nc(-c2ccccc2)n1 [Compound 294, 2-(4-phenyl-6-(pyridin-4-ylamino)-1,3,5-triazin-2-ylamino)ethanol] | No Fit
16 | – | 100 to 1000 | < 100 | – | CC(C)Nc1nc(Nc2ccnc(C(F)(F)F)c2)nc(-c2cccc(Cl)n2)n1 [Compound 396, 6-(6-chloropyridin-2-yl)-N^2-isopropyl-N4-(2-(trifluoromethyl)pyridin-4-yl)-1,3,5-triazine-2,4-diamine] | –
17 | – | 100 to 1000 | < 100 | – | CC(C)Nc1cc(Nc2nc(NC(C)C)nc(-c3ccccc3)n2)ccn1 [Compound 301, N^2-isopropyl-N^4-(2-(isopropylamino)pyridin-4-yl)-6-phenyl-1,3,5-triazine-2,4-diamine] | –
18 | – | 1000 to 10000 | < 100 | – | CC(O)CNc1nc(Nc2ccnc(C(F)(F)F)c2)nc(-c2cccc(Cl)n2)n1 (stereo not drawn) [Compound 389, 1-(4-(6-chloropyridin-2-yl)-6-(2-(trifluoromethyl)pyridin-4-ylamino)-1,3,5-triazin-2-ylamino)propan-2-ol] | –
19 | – | 100 to 1000 | < 100 | – | CC(C)Nc1nc(Nc2cncnc2)nc(-c2cccc(Cl)n2)n1 [Compound 353, 6-(6-chloropyridin-2-yl)-N^2-isopropyl-N^4-(pyrimidin-5-yl)-1,3,5-triazine-2,4-diamine] | –
20 | – | < 100 | < 100 | – | CS(=O)(=O)c1cccc(Nc2nc(NC3CCC3)nc(-c3ccccc3F)n2)c1 [Compound 317, N^2-cyclobutyl-6-(2-fluorophenyl)-N^4-(3-(methylsulfonyl)phenyl)-1,3,5-triazine-2,4-diamine] | –
21 | – | < 100 | 100 to 1000 | – | Cc1ccc(Nc2nc(NC(C)C)nc(-c3ccccc3)n2)cn1 [Compound 281, N^2-isopropyl-N^4-(6-methylpyridin-3-yl)-6-phenyl-1,3,5-triazine-2,4-diamine] | –
22 | – | 100 to 1000 | < 100 | – | CC(C)Nc1nc(Nc2cccc(S(C)(=O)=O)c2)nc(-c2cccc(Cl)n2)n1 [Compound 326, 6-(6-chloropyridin-2-yl)-N^2-isopropyl-N^4-(3-(methylsulfonyl)phenyl)-1,3,5-triazine-2,4-diamine] | –
23 | – | < 100 | < 100 | – | CC(C)CNc1nc(Nc2cncc(F)c2)nc(-c2ccccc2F)n1 [Compound 320, 6-(2-fluorophenyl)-N^2-(5-fluoropyridin-3-yl)-N^4-isobutyl-1,3,5-triazine-2,4-diamine] | –
24 | – | 100 to 1000 | < 100 | – | CC(C)(O)CNc1nc(Nc2ccnc(C(F)(F)F)c2)nc(-c2ccccc2F)n1 [Compound 319, 1-(4-(2-fluorophenyl)-6-(2-(trifluoromethyl)pyridin-4-ylamino)-1,3,5-triazin-2-ylamino)-2-methylpropan-2-ol] | –
25 | – | 100 to 1000 | < 100 | – | CC(C)Nc1nc(Nc2ccccc2)nc(-c2cccc(N)n2)n1 [Compound 290, 6-(6-aminopyridin-2-yl)-N^2-isopropyl-N^4-phenyl-1,3,5-triazine-2,4-diamine] | –
26 | – | 1000 to 10000 | – | – | CNc1ccc(Nc2nc(NC(C)C)nc(-c3ccccc3)n2)cn1 [Compound 303, N^2-isopropyl-N^4-(6-(methylamino)pyridin-3-yl)-6-phenyl-1,3,5-triazine-2,4-diamine] | No Fit
27 | – | 100 to 1000 | < 100 | – | CC(C)CNc1nc(Nc2cncc(F)c2)nc(-c2cccc(Cl)n2)n1 [Compound 399, 6-(6-chloropyridin-2-yl)-N^2-(5-fluoropyridin-3-yl)-N^4-isobutyl-1,3,5-triazine-2,4-diamine] | –
28 | – | 100 to 1000 | < 100 | – | Cc1cc(Nc2nc(NC(C)C)nc(-c3ccccc3)n2)cc(C)n1 [Compound 310, N^2-(2,6-dimethylpyridin-4-yl)-N^4-isopropyl-6-phenyl-1,3,5-triazine-2,4-diamine] | –
29 | – | < 100 | < 100 | – | CC(C)Nc1nc(Nc2ccnc(F)c2)nc(-c2ccccc2F)n1 [Compound 371, 6-(2-fluorophenyl)-N^2-(2-fluoropyridin-4-yl)-N^4-isopropyl-1,3,5-triazine-2,4-diamine] | –
30 | – | 100 to 1000 | 100 to 1000 | – | COCC(C)Nc1nc(Nc2ccncc2)nc(-c2ccccc2)n1 (stereo not drawn) [Compound 272, N^2-(1-methoxypropan-2-yl)-6-phenyl-N^4-(pyridin-4-yl)-1,3,5-triazine-2,4-diamine] | –
31 | – | 100 to 1000 | 100 to 1000 | – | CC(C)(O)CNc1nc(Nc2cncc(F)c2)nc(-c2cccc(C(F)(F)F)n2)n1 [Compound 407, 1-(4-(5-fluoropyridin-3-ylamino)-6-(6-(trifluoromethyl)pyridin-2-yl)-1,3,5-triazin-2-ylamino)-2-methylpropan-2-ol] | –
32 | – | 100 to 1000 | < 100 | – | CC(C)(O)CNc1nc(Nc2cncc(C(F)(F)F)c2)nc(-c2ccccc2F)n1 [Compound 392, 1-(4-(2-fluorophenyl)-6-(5-(trifluoromethyl)pyridin-3-ylamino)-1,3,5-triazin-2-ylamino)-2-methylpropan-2-ol] | –
33 | – | 100 to 1000 | – | < 100 | COC(=O)c1cc(Nc2nc(NC(C)C)nc(-c3ccccc3)n2)ccn1 [Compound 450, methyl 4-((4-(isopropylamino)-6-phenyl-1,3,5-triazin-2-yl)amino)picolinate] | –
